Assay [1] relates to T1, Plasmodium falciparum Dd2.
T1 construct: Dd2
In words: microbe, parasite or virus in culture. More on the design: species or system Plasmodium falciparum Dd2 in human erythrocytes; Asexual blood-stage parasite proliferation, SYBR Green I DNA fluorescence. The settings on record: DD2, Erythrocyte, 72 h, read-out: IC50 values (nM). The method, then:
Powershot G10 camera attached to the microscope and imported in Adobe Photoshop and Illustrator for image sizing and figure generation, respectively. SYBR Green cell proliferation assay. Compounds were tested for activity against asexual blood stage parasites using a previously described screening method (Plouffe et al., 2008). […] Toxoplasma gondii culturing and assay methods. The tachyzoite stage of Toxoplasma gondii (RH1, GFP-luc) was maintained by serial passage in human foreskin fibroblasts (HFF) cultured in Hank’s Buffered Salt Solution (HBSS) supplemented with 10% FBS, 2 mM L-glutamine, and 100 μg penicillin/100 μg streptomycin per milliliter maintained at 37 °C and 5% CO2. Parasites were harvested for use in assays by syringe lysis of infected HFF monolayers. Parasites were then centrifuged at 1,200 × g for 6 min and resuspended in HBSS supplemented with 10 mM Hepes, pH 7.0, and 1% (v/v) dialyzed FBS. All buffers were filter sterilized by passage through a […] Millipore Syringe Filter. Approximately 50,000 parasites and 5,000 HFF cell were incubated with compounds for 48 hours at 37 °C. Parasite and host cell proliferation rates were then determined using Bright-Glo® and CellTiter-Glo® (Promega). Maintenance, synchronization and imaging of erythrocytic stage P. falciparum cultures. A clonal stock of the P. falciparum line Dd2 (parental clone) was established by limiting dilution from a Dd2 isolate (MRA-156) obtained from the Malaria Research and Reference Reagent Resource Center (MR4; American Type Culture Collection), and used throughout these studies. All P. falciparum parasites were cultured in human erythrocytes and complete culturing media (CM) as previously described (Dharia et al., 2009). Highly synchronous cultures were achieved using the sorbitol synchronization method (Lambros and Vanderberg, 1979). Visualization of parasites were performed on Giemsa-stained thin blood smears under a 100x oil immersion objective on a Zeiss Primo Star light microscope. Digital images were captured using a Canon

Assay [2] has as its target T2, human lysyl-tRNA synthetase (human Krs1) (Homo sapiens, UniProt Q15046).
T2 construct: gene KARS1; purified recombinant human enzyme (Origene TP300311)
In words: Transcreener AMP fluorescence polarization aminoacylation assay with recombinant enzyme; weak inhibition. In kind it is biochemical.

In assay [3] the target is T3, P. falciparum cytosolic lysyl-tRNA synthetase (PfKrs1) (Plasmodium falciparum, UniProt Q8IDJ8).
T3 construct: gene PF3D7_1350100; recombinant PF13_0262, codon-optimized, in pET-28a(+), expressed in E. coli and purified
T3 sequence (Q8IDJ8 entry or part of it): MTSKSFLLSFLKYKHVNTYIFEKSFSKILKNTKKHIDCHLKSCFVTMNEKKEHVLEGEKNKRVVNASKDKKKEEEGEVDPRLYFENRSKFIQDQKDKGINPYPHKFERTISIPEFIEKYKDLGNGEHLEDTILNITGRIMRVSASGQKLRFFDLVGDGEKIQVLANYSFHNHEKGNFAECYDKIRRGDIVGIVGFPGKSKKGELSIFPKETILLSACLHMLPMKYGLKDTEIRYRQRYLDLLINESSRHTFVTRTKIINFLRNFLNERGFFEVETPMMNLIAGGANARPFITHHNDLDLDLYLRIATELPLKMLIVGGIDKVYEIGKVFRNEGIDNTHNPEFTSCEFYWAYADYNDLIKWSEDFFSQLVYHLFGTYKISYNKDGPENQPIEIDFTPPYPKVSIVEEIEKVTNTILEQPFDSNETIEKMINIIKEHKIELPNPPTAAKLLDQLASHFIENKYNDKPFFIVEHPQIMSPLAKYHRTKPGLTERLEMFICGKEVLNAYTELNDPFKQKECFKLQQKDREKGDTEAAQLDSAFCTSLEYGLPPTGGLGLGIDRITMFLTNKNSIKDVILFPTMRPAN
In words: Transcreener AMP fluorescence polarization aminoacylation assay with recombinant enzyme. It counts as biochemical. In general terms: Fluorescence polarisation rises when a labelled molecule tumbles more slowly, as on binding a larger partner.

Assay [4] has as its system T4, Saccharomyces cerevisiae BY4743Δ8.
T4 construct: BY4743Δ8 (eight drug-resistance genes deleted: SNQ2, PDR5, YOR1, PDR1, PDR2, PDR3, YAP1, YRM1)
In words: microbe, parasite or virus in culture. Set-up: Yeast growth inhibition, optical density at 600 nm, dose response. The settings on record: synthetic media, no added lysine, read-out: Cladosporin IC50 (µM) Synthetic media. The method, then: SUPPLEMENTAL FIGURES Figure S1 | Cladosporin inhibition of S. cerevisiae wild type strain BY4743 and a drug efflux mutant strain BY4743Δ8, related to Figure 1. Yeast growth in the presence of cladosporin was measured by optical density at 600 nm (OD600) and the 30% inhibitory concentration (IC30) and 50% inhibitory concentration (IC50) of cell growth were determined. […] Data were collected from duplicate experiments, normalized with a DMSO control and expressed as the means±SD. A logistic regression curve fit algorithm on the recorded OD600 values was performed to determine the aforementioned IC30 and IC50 values. Strain BY4743Δ8, derived from BY4741 but deleted for eight genes involved in drug resistance (efflux pumps, SNQ2, PDR5, YOR1; transcription factors, PDR1, PDR2, PDR3, YAP1, YRM1) was incubated in 2.5% ethylmethanesulfonate until only 50% of the cells formed colonies. A total of 2 × 10^7 mutagenized CMB970 cells were plated on two 14 cm dishes with synthetic complete medium (0.7 g/l Difco Yeast Nitrogen Base without amino acids, 0.79 g/l MPbio CSM amino acid mixture, 2% glucose) containing 50 μM cladosporin. After 4 days, 37 resistant colonies appeared. […] Of these 37, ten colonies contained nonsynonymous mutations in the KRS1 open reading frame. […] Curves were calculated by taking the 16 hr OD600 measurements and applying a logistic regression curve fit. […]

For assay [5] the test system is unchanged. In words: microbe, parasite or virus in culture. More on the design: Yeast growth inhibition, optical density at 600 nm, dose response. The settings on record: rich media, no added lysine, read-out: Cladosporin IC50 (µM) Rich media. Here is the method:
SUPPLEMENTAL FIGURES Figure S1 | Cladosporin inhibition of S. cerevisiae wild type strain BY4743 and a drug efflux mutant strain BY4743Δ8, related to Figure 1. Yeast growth in the presence of cladosporin was measured by optical density at 600 nm (OD600) and the 30% inhibitory concentration (IC30) and 50% inhibitory concentration (IC50) of cell growth were determined. Assay plates seeded with the respective strains were grown in rich medium and incubated […] against a 12-point dilution series of cladosporin (0-200 µM). Data were collected from duplicate experiments, normalized with a DMSO control and expressed as the means±SD. A logistic regression curve fit algorithm on the recorded OD600 values was performed to determine the aforementioned IC30 and IC50 values. Strain BY4743Δ8, derived from BY4741 but deleted for eight genes involved in drug resistance (efflux pumps, SNQ2, PDR5, YOR1; transcription factors, PDR1, PDR2, PDR3, YAP1, YRM1) was incubated in 2.5% ethylmethanesulfonate until only 50% of the cells formed colonies. […] Of these 37, ten colonies contained nonsynonymous mutations in the KRS1 open reading frame. […] Curves were calculated by taking the 16 hr OD600 measurements and applying a logistic regression curve fit. […]

Read-outs that look alike come from different tables or passages of the source. *1 amine or outer side, *2 acyl side, *3 side chain or, on linkers, in order; H or OH if unused. Where a SMILES comes first, the peptide text is derived from it. [ ]: non-standard residue; d: D form. X1 = CC(C)([C@@H]1CO1)n1cc([C@@H](O)[C@H](CC(=O)[*:2])N[*:1])c2ccccc21; NMeLeu(5-OH,4R) = CN[C@@H](C[C@@H](C)CO)C(=O)O; Nle(4R-Me-5-ene) = C=C[C@H](C)C[C@H](N)C(=O)O; Phe(βR-OMe) = CO[C@H](c1ccccc1)[C@H](N)C(=O)O; NMeL = CN[C@@H](CC(C)C)C(=O)O Bounds are passed on as bounds.

T2 sequence (Q15046 2-597): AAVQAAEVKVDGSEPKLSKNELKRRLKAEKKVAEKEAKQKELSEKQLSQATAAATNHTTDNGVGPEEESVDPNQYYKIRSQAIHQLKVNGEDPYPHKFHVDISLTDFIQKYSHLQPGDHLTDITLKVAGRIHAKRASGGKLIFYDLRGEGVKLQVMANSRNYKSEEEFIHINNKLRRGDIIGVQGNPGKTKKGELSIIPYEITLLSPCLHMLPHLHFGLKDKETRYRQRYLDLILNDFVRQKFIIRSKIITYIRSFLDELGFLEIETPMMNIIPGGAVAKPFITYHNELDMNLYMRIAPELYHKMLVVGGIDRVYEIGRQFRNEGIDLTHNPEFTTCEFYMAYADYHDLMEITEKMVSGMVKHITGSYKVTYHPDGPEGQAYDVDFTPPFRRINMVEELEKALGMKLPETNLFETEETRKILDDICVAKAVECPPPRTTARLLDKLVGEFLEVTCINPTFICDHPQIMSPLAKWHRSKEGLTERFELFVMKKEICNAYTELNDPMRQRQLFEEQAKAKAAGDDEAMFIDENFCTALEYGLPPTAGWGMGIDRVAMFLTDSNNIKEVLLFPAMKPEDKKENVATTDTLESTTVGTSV

As for `CCc1nc(N)nc(N)c1-c1ccc(Cl)cc1` [PYR, pyrimethamine], the IC50 (commonly the concentration that gives 50% inhibition) in assay [1] was > 10000 nM. For the compound `C=C[C@H](C)C[C@@H]1NC(=O)[C@H](CC(C)C)N(C)C(=O)[C@H](C(C)C)NC(=O)[C@H]([C@H](OC)c2ccccc2)NC(=O)[C@H](C)NC(=O)[C@H](C[C@@H](C)CO)N(C)C(=O)C[C@@H]([C@H](O)c2cn(C(C)(C)[C@@H]3CO3)c3ccccc23)NC1=O` [CycA, cyclomarin A] (cyclo(A[Phe(βR-OMe)]V[NMeL][Nle(4R-Me-5-ene)][X1][NMeLeu(5-OH,4R)])), the IC50 in assay [1] was found to be 48.8 ± 10.1 nM. Take `C[C@H]1CCC[C@H](C[C@H]2Cc3cc(O)cc(O)c3C(=O)O2)O1` [cladosporin]: the IC50 in assay [2] was > 20000 nM; in assay [3] it was 61 nM; in assay [4], 18.4 µM; in assay [5], 7.92 µM. As to `O[C@@H](c1cc(C(F)(F)F)nc2c(C(F)(F)F)cccc12)[C@H]1CCCCN1` (racemic) [MFQ, mefloquine], the 50% inhibitory concentration (IC50) in assay [1] was 9 nM.

As to `O=C1C(O)=C([C@H]2CC[C@H](c3ccc(Cl)cc3)CC2)C(=O)c2ccccc21` [ATQ, atovaquone], the IC50 in assay [1] was found to be 0.8 ± 0.2 nM.

For the origin of these results see PMC3391680, “Selective and Specific Inhibition of the Plasmodium falciparum Lysyl-tRNA Synthetase by the Fungal Secondary Metabolite Cladosporin” (Cell Host & Microbe, 2012).
